Test results as given in publication PMC5040747, “Preparation and Evaluation of a Novel Class of Amphiphilic Amines as Antitumor Agents and Nanocarriers for Bioactive Molecules” (Pharmaceutical Research, 2016).
Read-outs that look alike come from different tables or passages of the source.

What was measured:
[1] = system: nude mice bearing CHLA-20 tumors; test: Biodistribution study (IVIS imaging); type: in vivo, mouse; conditions: RC16 labelled with Cell-Vue Maroon
Experimental: A pilot biodistribution study using one animal per timepoint was performed to minimize the number of experimental animals. Female athymic nude mice were subcutaneously implanted with 5.0 × 10^6 CHLA-20 cells. When tumors became palpable (approximately 5 mm in diameter), mice were treated with i.v. injections of RC16 labelled with Cell-Vue Maroon (dye:RC16, 1:100 mol:mole) at a dose of 1 mg/kg. […] The mice were then humanely euthanized by CO2 asphyxiation. Organs were removed, weighed and used for quantitative optical imaging by the IVIS system.

[2] = system: adult tumor cell lines (A549, MDA-MB-231, WiDr); test: MTT cell killing, adult tumor cell lines (summary); type: cell-based; conditions: Homo sapiens, summary of Table II
Experimental: (§1) Cells were plated in 96-well tissue culture plates at a density of 1 × 10^3 cells/well, allowed to attach 24 h, and then left untreated or treated with growth medium containing different concentrations of the tested RCn compounds previously dissolved in PBS. After different time periods the cell vitality was determined by MTT assay according to the manufacture’s instruction (Promega). Results are reported as the micromolar concentration of RCn reducing cell survival to 50% (IC50).

143.98.2 = test: MTT cell proliferation assay, 143.98.2; type: cell-based; conditions: Homo sapiens, 143.98.2, Osteosarcoma, read-out: Cell killing activity IC50
Experimental: as §1

[3] = system: human tumor xenografts (CHLA-20, SK-N-AS, A673, A549, S462TY); test: In vivo efficacy, human tumor xenograft models
Experimental: Female athymic nude mice were subcutaneously injected with 5 × 10^6 human cancer cells in 150 μL mix of PBS and matrigel (2:1). The mice were then randomized into groups of six animals for each tumor type. This number was chosen because we sought a large effect size and to minimize numbers of mice. When tumors reached a mean volume of 150 mm^3, the animals were treated with RC16 or vehicle alone (PBS), given slowly through the tail vein at the dose of 1 mg/kg, 3 times a week for 3 weeks or orally gavaged at the dose of 2 mg/kg/day for 3 weeks.
Endpoint criteria included tumor volume > 2000 mm3, body weight loss ≥ 20%, unusual mouse behavior, lack of movement and poor posture. Tumor size was measured using digital calipers on alternate days and tumor volume was calculated using the following formula: a x b^2 π/6 where a is the longest diameter and b is the shortest diameter. Mice were also weighed and observed 3 times per week for signs of endpoint condition.

S462.TY cells = test: Interaction of RC16 with sialic acid (MTT); type: cell-based, human; conditions: 24 h
Experimental: Neuraminidase was used to cleave the sialic acid residues from the polysialilated glycoproteins and gangliosides of the tumor cell surface and the anticancer activity of RC16 was subsequently tested in comparison with the cells not exposed to Neuraminidase. Cells were seeded on 96 well plates at a density of 2 × 10^4 cells /plate and after 24 h were exposed to 50 IU/mL Neuraminidase Type VI from Clostridium Perfrigens (Sigma) for 3 h. Cells were washed 3 times with PBS and afterwards treated with RC16 . The effect on cell number was evaluated after 24 h by MTT assay in comparison with cells not treated with Neuraminidase. The RC16 –sialic acid interaction was also evaluated by adding sialic acid to the culture medium in stoichiometric amount with respect to RC16. In this experiment cells seeded on 96 well plates at a density of 2 × 10^4 cells /plate and after 24 h were treated with a mixture of RC16 : sialic acid (3 μM : 3 μM). After 24 h the effect on cell number was evaluated by MTT assay in comparison with cells treated with pure RC16 or pure sialic acid at the same concentration (3 μM) of the mixture.

[4] = system: human keratinocytes, human fibroblasts and HUVEC; test: MTT cell killing, normal versus tumor cells (summary); type: cell-based
Experimental: as §1

SH-SY5Y cells = test: Caspase activation (western blot, fluorimetric assay); type: cell-based
Experimental: Cells with or without RCn treatment were washed with PBS and lysed on ice for 30 min in lysis buffer containing protease and phosphatase inhibitors. Protein concentrations were determined with the Bio-Rad protein assay kit. 50 μg of total protein was separated on 12% SDS-PAGE at 100 V for 1 h and then transferred onto a nitrocellulose membrane using a wet blotting apparatus (Bio-Rad Laboratories) at 20 V overnight. Proteins were detected by enhanced chemiluminescence detection reagents (Amersham Biosciences). The antibodies used for immunoblotting were: caspases 3, 8, 9, and PARP were diluted 1:100 in blocking reagent (Cell Signaling Technology). The exposure time was the same for all the antibodies. Blots were stripped and reprobed with anti-β-tubulin diluted 1:10,000 in blocking reagent (Santacruz Biotechnology) used as the loading control.
Detection of caspase activity was evaluated by ApoFluor Green Apoptosis Detection kits specific for: caspase-1 and caspase-4; caspase-2, caspase-3 and caspase-7; caspase-6, caspase-8, caspase-9, caspase-10, and caspase-13 (MP Biochemicals), according to the manufacturer’s instructions. […] After 1 h incubation samples were washed and analyzed by flow cytometry (FACScan, Becton Dickinson) equipped with a 15-mW argon ion laser at 488 nm ([16]).

Micelle size by TEM = type: physicochemical; conditions: RC16 micelles self-assembled in water
Experimental: TEM studies were carried out on SH-SY5Y cells and HFs incubated with 5 μM RC16 for 24 h. Cells were seeded on cover glasses for 24 h and then the medium was replaced with a fresh one containing 5 μM RC16 for 24 h. At the end of the treatment the samples were washed with PBS and fixed with 2.5% glutaraldehyde in 0.1 M phosphate buffer for 2 h at 4°C and subsequently post-fixed with 1% OsO4 in 0.1 M phosphate buffer for 1 h at room temperature. After several washes the samples were dehydrated in an acetone series (70, 90, 100%) and embedded in Epon resin (Fluka, Sigma-Aldrich). Thin sections were collected on nickel grids, stained with uranyl acetate and lead citrate, and observed under a TEM (Philips CM10; FEI). Images were recorded using a Megaview III digital camera (FEI). […] To this purpose an aqueous solution of RC16 (20 μM) was stained with 2% (w/v) phosphotungstic acid for 3 min on a copper grid and subsequently it was visualized under TEM.

Rh41 = test: MTT cell proliferation assay, Rh41; type: cell-based; conditions: Homo sapiens, Rh41, Rhabdomyosarcoma, read-out: Cell killing activity IC50
Experimental: as §1

WIDr = test: MTT cell proliferation assay, WIDr; type: cell-based; conditions: Homo sapiens, adult tumor cell line, read-out: Cell killing activity IC50
Experimental: as §1

## CCCCCCCCCCCCCCC1CN2CCCN3CCCCCC132 (centres unmarked) [RC16, 2-tetradecyl-4,8-diazatricyclo[6.5.0.0^1,^4]tridecane]
[1]; 1 mg/kg i.v., 12, 24 and 48 h
  Organ fluorescence intensity (biodistribution): stomach, intestine and liver showed the highest fluorescence intensity
[1]; 1 mg/kg i.v., CHLA-20 tumors
  RC16 level in tumors over time: remained constant over time
[2]
  IC50: 1000 to 10000 nM
143.98.2; 24 h
  IC50: 500 nM
143.98.2; 48 h
  IC50: 320 nM
[3]; 1 mg/kg i.v. 3 times a week for 3 weeks or 2 mg/kg/day oral gavage for 3 weeks
  Antitumor activity (inhibition of tumor growth, RTV): strong antitumor activity
[3]; i.v. 1 mg/kg 3 times a week or gavage 2 mg/kg/day, 3 weeks
  Weight loss or signs of toxicity during treatment: No weight loss or signs of toxicity
S462.TY cells; RC16 3 μM, versus cells not exposed to Neuraminidase
  Anticancer activity after Neuraminidase pre-treatment of cells: decreased the anticancer activity of RC16
S462.TY cells; RC16 : sialic acid 3 μM : 3 μM, versus pure RC16
  Anticancer activity with sialic acid added to culture medium: decreased the RC16 anticancer activity
[4]
  IC50 for normal cells relative to tumor cells: more than tenfold higher
SH-SY5Y cells; 5 μM RC16, 1-24 h
  Caspase activation, fluorimetric assay (caspases 1, 2, 3, 6, 8, 9, 10, 13): all the above caspases were activated already at 4 h
SH-SY5Y cells; 5 μM RC16, 2-36 h
  Caspase activation, western blot: activation of caspases 3, 8 and 9
Micelle size by TEM
  Micelle mean diameter: 20–30 nm
Rh41; 24 h
  IC50: 250 nM
Rh41; 48 h
  IC50: 150 nM
WIDr; 24 h
  IC50: 7300 nM
WIDr; 48 h
  IC50: 6020 nM
